# Source: patent US10035780B2, “Quinazoline scaffold based compounds, pharmaceutical compositions and methods of use thereof” (TECHNION RESEARCH & DEVELOPMENT FOUNDATION LTD., priority 2014, dated 2018)
# Entries after “also recorded” stand apart in the source; their conditions may differ.
# Key:
# TSPO = TSPO (Homo sapiens (Human), UniProt P30536); format: binding; settings: displacement of [3H]PK 11195 from TSPO
# Method: Briefly, the assay utilizes radioactive standard ligand [^3H] PK 11195 (1-(2-chlorophenyl)-N-methyl-N-(1-methyl-propyl)-3 isoquinolinecarboxamide), and measures the ability of the compounds of the invention to displace standard ligand in binding to TSPO. Total radioactive binding was determined by measuring the radioactivity of the radioactive ligand-receptor complex, obtained in the reaction of radioactive standard with the TSPO. Radioactive standard and the examined compound were added to the TSPO and after some incubation time the radioactivity of the resulting ligand-receptor complexes was measured with the help of a […]. This radioactivity indicates the binding of the radioactive standard to TSPO. […] This can be expressed as the half maximal inhibitory concentration (IC50), which is a measure of the effectiveness of a compound in inhibiting biological or biochemical function, in this case inhibiting binding of standard radioactive ligand binding to the TSPO. A derivative of the IC50 is the Ki, which is the calculated binding affinity of the novel compound to the TSPO.
# Binding to TSPO was evaluated using a [^3H]PK 11195 radio-assay, as described above.
# [1] = Pharmacokinetic properties in the mouse after i.p. administration; format: in vivo
# R6-2 mice = test: Lifespan of R6-2 mice, transgenic model for Huntington Disease; format: in vivo, mouse; settings: daily s.c. injections 5 days a week from week 5, vs DMSO and saline
# Text: For the assays described herein systemic injections of kainic in rats were applied and also contusion (Veenman et al. 2002; Soustiel et al. Neuropathol Appl Neurobiol. 2008; Soustiel et al. Exp Neurol. 2008). These models present very well defined cell death in the brain. Cell death in the brain is the major pathological characteristic of progressing neurodegeneration common to brain diseases. As the compounds of the present invention are designed to prevent cell death in the brain as a consequence of disease and progressing brain damage after injury, including behavioral impairments, animal models displaying cell death in the brain are the models of choice for displaying the protective capabilities of the compounds of the invention. For these reasons the R6-2 model for Huntington Disease was chosen to test the effectiveness of Compound 1 and to compare the effectiveness of Compound 1 with those of the compound of U.S. Pat. No. 8,541,428 (Cpd A) and with the classical TSPO ligand PK 11195, as well as other compounds disclosed herein. Compounds 5 and 6 were also tested in the same R6-2 model.
# R6-2 is a transgenic mouse model for Huntington Disease. Huntington Disease in humans is a hereditary neurodegenerative disease affecting motor performance and finally leading to death of the patients having the disease. R6-2 mice (˜120 CAG repeats B6CBA-Tg(HDexon1)62 Gpb/3J) mice were used for the experiments described below. For this purpose, mice obtained from the Jackson Laboratory (ME) were bred. In particular: males genotype: Hemizygous for Tg(HDexon1)62 Gpb, and females from the wildtype background strain B6CBAF1/J were bred according to the protocol of Jackson Laboratory. The male heterozygote offspring (R6-2 mice) were used for determining life span and motor activity, with and without drug treatment. Drug treatment consisted of daily (5 continuous days a week) subcutaneous injections of mice with 20 μl of: saline (sham control), vehicle DMSO (vehicle control), classic TSPO ligand PK 11195 (15 mg/kg), prior art Compound A (15 mg/kg), Compound 1 (15 mg/kg), and compound 1 (7.5 mg/kg). Drug treatment started on week 5 after birth. Quantities were used according to previous studies regarding TSPO ligands.
# Apart from the behavioral experiments, mice were observed daily, and the day of death was noted. Behavioral experiments included distance covered in an open field apparatus, and tremor measurements.
# R6-2 mice were used as previously described in Example 5. In one experiment, treatment consisted of daily (5 continuous days per week) subcutaneous injections of mice with 20 μl of vehicle DMSO (control, n=10) and Compound 6 (7.5 mg/kg, n=12). In a separate experiment, compound 5 (7.5 mg/kg, n=5) was tested, compared to DMSO control (n=5).
# U118MG cells = test: Collapse of the mitochondrial membrane potential (ΔΨm) induced by glutamate; format: cell-based, human; settings: glutamate exposed cells
# Text: Techniques and parameters assayed are summarized here: Total protein levels (Bradford. Anal Biochem. 1976; 72:248-54); TSPO ligand binding assays (Kugler et al. 2008; Levin et al. 2005; Danovich et al. Eur Neuropsychopharmacol. 2008; 18:24-33) cell death, including apoptosis and necrosis and related molecular biological processes (Soustiel et al. Neuropathol Appl Neurobiol. 2008; 34:412-23; Soustiel et al. Exp Neurol. 2008; 214:201-8; Zeno et al. 2009); mitochondrial transmembrane potential collapse (Chelli et al. Biochem Pharmacol. 2004; 68:125-34; Kugler et al. 2008; Zeno et al., 2009; Shargorodsky et al. Apoptosis. 2012; 17:647-65), reactive oxygen species (ROS) generation as a measure of oxidative stress (Veenman et al. 2008; Zeno et al. 2009); TSPO knockdown (Levin et al. 2005; Zeno et al. 2009); expression levels of mitochondrial TSPO and associated proteins (Veenman et al. 2002; Levin et al. 2005; Veenman et al. 2008); gene expression with RT-PCR and microarray analysis (Bode et al. 2012; Veenman et al. 2012). Parameters of inflammation, immune response, migration, and the cell cycle are also tested. All these approaches can also be applied for quality control of the compounds.
# Compound 1 is very effective at a concentration of 25 μM in this model (in order to achieve the same effect with the classical TSPO ligand PK 11195 a concentration of 50 μM has to be applied (data not shown).
# TSPO, sequence (P30536 whole entry): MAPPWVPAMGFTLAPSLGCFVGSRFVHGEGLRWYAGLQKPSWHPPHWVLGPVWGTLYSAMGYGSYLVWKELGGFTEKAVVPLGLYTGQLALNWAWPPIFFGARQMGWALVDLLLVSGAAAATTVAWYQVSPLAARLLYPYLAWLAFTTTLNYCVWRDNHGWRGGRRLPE
compound,measurement,setting,value
"CCN(C)C(=O)Oc1nc(-c2ccccc2)nc2ccccc12 [Compound 1, 2-phenylquinazolin-4-yl ethyl(methyl)carbamate]",Ki,TSPO,~0.06 µM
same,distribution to the brain,[1],quite quickly distributed to the brain
same,Kp,"[1]; brain, ip, read-out: Uptake ratio to the brain",0.2
same,half-life,"[1]; in vivo, ip",3.5 h
same,effect on lifespan,R6-2 mice,increases average lifespan; also recorded: extends the life span
same,effect on lifespan,R6-2 mice; listed as compound 1,enhanced lifespan
same,concentration very effective in preventing ΔΨm collapse,U118MG cells,25 µM
same,prevention of ΔΨm collapse induced by glutamate,U118MG cells,prevents collapse
same,prevention of ΔΨm collapse induced by glutamate,U118MG cells; listed as Cpd 1,prevented
